Assay results reported in article PMC12155096 (International Journal of Molecular Sciences, 2025).
Where a name gives a salt, the structure may show the parent alone. Read-outs that look alike come from different tables or passages of the source.

How the values were obtained:
CYP3A4 = CYP3A4 (Homo sapiens, UniProt P08684); test: biochemical
human CYP2C19 [1] = target: T1, human CYP2C19 (Homo sapiens, UniProt P33261)
human CYP2C9 [2] = target: T2, human CYP2C9 (Homo sapiens, UniProt P11712)
human CYP1A2 = target: T3, human CYP1A2 (Homo sapiens, UniProt P05177); test: biochemical
T3 sequence (P05177 1-516): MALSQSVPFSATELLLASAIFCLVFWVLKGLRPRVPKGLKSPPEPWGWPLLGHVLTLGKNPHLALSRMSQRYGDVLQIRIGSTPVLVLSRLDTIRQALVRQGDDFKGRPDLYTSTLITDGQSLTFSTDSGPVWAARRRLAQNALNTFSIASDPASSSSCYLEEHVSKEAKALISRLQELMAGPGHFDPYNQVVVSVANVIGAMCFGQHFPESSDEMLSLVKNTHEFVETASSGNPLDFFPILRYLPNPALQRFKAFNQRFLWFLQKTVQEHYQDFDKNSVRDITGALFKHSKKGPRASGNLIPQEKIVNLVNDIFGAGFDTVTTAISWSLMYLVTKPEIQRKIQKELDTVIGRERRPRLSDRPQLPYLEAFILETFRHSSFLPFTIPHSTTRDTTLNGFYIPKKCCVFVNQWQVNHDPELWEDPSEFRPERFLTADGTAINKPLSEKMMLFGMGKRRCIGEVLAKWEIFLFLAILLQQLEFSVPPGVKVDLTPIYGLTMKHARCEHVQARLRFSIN

human CYP2D6 = human CYP2D6 (Homo sapiens, UniProt P10635)
human CYP2C9 [3] = target: T2, human CYP2C9; test: biochemical
human CYP2C19 [4] = target: T1, human CYP2C19; test: biochemical
[5] = CYP3A4 AC50 (half-maximal activity concentration)
[6] = CYP1A2 AC50 (half-maximal activity concentration)
[7] = CYP2C9 AC50 (half-maximal activity concentration)
[8] = CYP2C19 AC50 (half-maximal activity concentration)

CYP3A4, sequence (P08684 whole entry): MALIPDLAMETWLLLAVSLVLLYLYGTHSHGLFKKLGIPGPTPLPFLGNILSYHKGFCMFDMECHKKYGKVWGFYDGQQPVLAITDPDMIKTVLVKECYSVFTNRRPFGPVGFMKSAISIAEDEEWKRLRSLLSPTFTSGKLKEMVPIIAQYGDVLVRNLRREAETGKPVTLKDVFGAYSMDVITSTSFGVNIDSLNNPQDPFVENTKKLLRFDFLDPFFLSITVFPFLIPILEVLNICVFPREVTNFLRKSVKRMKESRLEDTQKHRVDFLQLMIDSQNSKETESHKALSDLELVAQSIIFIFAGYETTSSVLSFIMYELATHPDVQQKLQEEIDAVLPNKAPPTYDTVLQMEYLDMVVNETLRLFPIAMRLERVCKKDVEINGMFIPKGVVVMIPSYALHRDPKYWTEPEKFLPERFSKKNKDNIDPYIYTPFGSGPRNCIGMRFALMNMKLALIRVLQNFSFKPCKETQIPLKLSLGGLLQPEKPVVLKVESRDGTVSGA
T1 sequence (P33261 whole entry): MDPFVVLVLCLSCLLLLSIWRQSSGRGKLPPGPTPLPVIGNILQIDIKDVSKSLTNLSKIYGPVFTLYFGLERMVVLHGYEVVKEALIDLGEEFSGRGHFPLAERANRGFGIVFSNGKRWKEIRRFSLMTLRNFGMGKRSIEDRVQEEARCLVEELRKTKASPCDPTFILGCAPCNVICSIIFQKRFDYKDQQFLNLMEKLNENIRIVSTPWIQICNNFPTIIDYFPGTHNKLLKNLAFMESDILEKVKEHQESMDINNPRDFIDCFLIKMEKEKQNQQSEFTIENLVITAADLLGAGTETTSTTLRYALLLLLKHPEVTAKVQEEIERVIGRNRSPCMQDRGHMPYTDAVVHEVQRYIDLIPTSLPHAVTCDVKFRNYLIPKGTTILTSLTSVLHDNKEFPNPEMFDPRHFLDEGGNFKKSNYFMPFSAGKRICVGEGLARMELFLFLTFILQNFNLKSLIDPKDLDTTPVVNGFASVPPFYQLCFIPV
T2 sequence (P11712 whole entry): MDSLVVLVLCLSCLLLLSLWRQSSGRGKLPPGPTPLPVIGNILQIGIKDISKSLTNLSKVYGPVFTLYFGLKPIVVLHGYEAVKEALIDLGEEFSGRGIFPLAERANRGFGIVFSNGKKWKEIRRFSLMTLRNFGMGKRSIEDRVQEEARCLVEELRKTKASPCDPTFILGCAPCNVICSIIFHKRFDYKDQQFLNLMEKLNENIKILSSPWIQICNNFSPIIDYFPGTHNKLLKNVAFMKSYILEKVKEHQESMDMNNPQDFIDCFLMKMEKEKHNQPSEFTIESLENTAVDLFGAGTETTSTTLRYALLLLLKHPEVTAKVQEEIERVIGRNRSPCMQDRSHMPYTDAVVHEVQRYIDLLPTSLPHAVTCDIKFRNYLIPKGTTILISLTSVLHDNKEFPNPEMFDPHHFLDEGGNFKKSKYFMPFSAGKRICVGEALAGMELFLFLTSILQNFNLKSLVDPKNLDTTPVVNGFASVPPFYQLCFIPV
human CYP2D6, sequence (P10635 whole entry): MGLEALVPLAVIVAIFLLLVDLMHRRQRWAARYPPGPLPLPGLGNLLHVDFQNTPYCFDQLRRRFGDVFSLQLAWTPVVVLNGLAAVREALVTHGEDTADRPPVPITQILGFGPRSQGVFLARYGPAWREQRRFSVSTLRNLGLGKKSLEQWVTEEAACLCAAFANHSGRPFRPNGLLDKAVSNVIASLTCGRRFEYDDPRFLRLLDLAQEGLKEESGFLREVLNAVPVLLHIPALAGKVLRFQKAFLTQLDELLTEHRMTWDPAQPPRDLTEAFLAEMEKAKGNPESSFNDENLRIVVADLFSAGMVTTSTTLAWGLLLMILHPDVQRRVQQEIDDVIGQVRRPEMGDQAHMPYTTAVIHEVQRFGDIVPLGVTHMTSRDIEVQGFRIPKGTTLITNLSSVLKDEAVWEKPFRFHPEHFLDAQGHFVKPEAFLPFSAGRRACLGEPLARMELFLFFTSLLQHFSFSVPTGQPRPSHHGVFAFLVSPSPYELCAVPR

Row | AC50 (CYP3A4) [µM] | AC50 (human CYP1A2) [µM] | AC50 (human CYP2C9 [3]) [µM] | AC50 (human CYP2C19 [4]) [µM] | Compound | CYP2C19 AC50 (half-maximal activity concentration) (human CYP2C19 [1]) | CYP2C9 AC50 (half-maximal activity concentration) (human CYP2C9 [2]) | CYP2D6 AC50 (half-maximal activity concentration) (human CYP2D6) | AC50 (CYP3A4; [5]) [µM] | AC50 (human CYP1A2; [6]) [µM] | AC50 (human CYP2C9 [3]; [7]) [µM] | AC50 (human CYP2C19 [4]; [8]) [µM]
1 | 5.51 | 9.06 | – | – | Clc1nnc(Cl)c2ccccc12 [1,4-Dichlorophthalazine] | Inactive | Inactive | Inconclusive inhibitor | – | – | – | –
2 | – | – | – | – | O=[N+]([O-])c1cccc(Cl)c1Cl [2,3-Dichloronitrobenzene] | Inactive | Inconclusive activator | Inactive | 29.1 | 34.6 | – | –
3 | – | – | – | – | O=[N+]([O-])c1c(Cl)cc(Cl)cc1Cl [2,4,6-Trichloronitrobenzene] | Inactive | Inactive | Inactive | 6.35 | 34.7 | – | –
4 | – | – | – | – | O=[N+]([O-])c1ccccc1CCl [2-Nitrobenzyl chloride] | Inconclusive inhibitor | Inactive | Inconclusive inhibitor | 36.1 | 56.1 | – | –
5 | – | – | – | – | O=C(O)c1ccc(Cl)c(Cl)c1 [3,4-Dichlorobenzoic acid] | Inconclusive inhibitor | Inconclusive inhibitor | Inactive | 59.7 | 59.2 | – | –
6 | – | – | – | – | O=[N+]([O-])c1cc(C2CCCCC2)c(O)c([N+](=O)[O-])c1 [Dinex] | – | – | Inconclusive inhibitor | 22.5 | 71.1 | 8.27 | 39.8
7 | 35.7 | 30.8 | 29.4 | 21 | CCC1OCC(COc2ccc(Oc3ccccc3)cc2)O1 (centres unmarked) [Diofenolan] | – | – | Inconclusive inhibitor | – | – | – | –
8 | – | – | – | – | CN(C)C(=O)C(c1ccccc1)c1ccccc1 [Diphenamid] | – | – | Inactive | 31.2 | 50.2 | 38.4 | 53.7
9 | – | – | – | – | O=C(Oc1ccccc1)c1ccccc1C(=O)Oc1ccccc1 [Diphenyl phthalate] | – | – | Inactive | 7.65 | 4.94 | 13.7 | 14.2
10 | 31.9 | 11.3 | 7.68 | 5.97 | CCCOC(=O)c1ccc(C(=O)OCCC)nc1 [Dipropyl 2,5-pyridinedicarboxylate] | – | – | Inactive | – | – | – | –
11 | – | – | – | – | CCCOC(=O)c1ccccc1C(=O)OCCC [Dipropyl phthalate] | – | – | Inactive | 9.91 | 2.38 | 30 | 7.01
12 | 27.5 | 16.5 | 41.5 | 25.5 | CCOC(=O)Cc1cccc2ccccc12 [Ethyl 1-naphthaleneacetate] | – | – | Inactive | – | – | – | –
13 | – | – | – | – | CCOC(=O)C1OC1(C)c1ccccc1 (centres unmarked) [Ethyl methylphenylglycidate] | – | – | Inconclusive inhibitor | 37.7 | 34.6 | 61.4 | 45.4
14 | 47.4 | 7.68 | 31.9 | 20.8 | CCOC(=O)COC(=O)c1ccccc1C(=O)OCC [Ethyl phthalyl ethyl glycolate] | – | – | Inactive | – | – | – | –
15 | – | – | – | – | CCOC(=O)C(C)Oc1ccc(Oc2nc3ccc(Cl)cc3o2)cc1 (centres unmarked) [Fenoxaprop-ethyl] | – | – | Inconclusive inhibitor | 28.4 | 23.9 | 44 | 53
16 | – | – | – | – | N#Cc1c[nH]cc1-c1cccc2c1OC(F)(F)O2 [Fludioxonil] | – | – | Inactive | 5.11 | 1.53 | 18.6 | 5.3

Row | AC50 (CYP3A4) [µM] | AC50 (human CYP1A2) [µM] | AC50 (human CYP2C9 [3]) [µM] | AC50 (human CYP2C19 [4]) [µM] | Compound | CYP2C19 AC50 (half-maximal activity concentration) (human CYP2C19 [1]) | CYP2C9 AC50 (half-maximal activity concentration) (human CYP2C9 [2]) | CYP2D6 AC50 (half-maximal activity concentration) (human CYP2D6) | AC50 (CYP3A4; [5]) [µM] | AC50 (human CYP1A2; [6]) [µM] | AC50 (human CYP2C9 [3]; [7]) [µM] | AC50 (human CYP2C19 [4]; [8]) [µM]
17 | – | – | – | – | CC(C)N(C(=O)COc1nnc(C(F)(F)F)s1)c1ccc(F)cc1 [Flufenacet] | – | – | Inactive | 19.3 | 37 | 35.6 | 3.4
18 | – | – | – | – | N#Cc1cc(I)c(O)c(I)c1 [Ioxynil] | – | – | Inactive | 38.5 | 46.2 | 22.4 | 83.2
19 | – | – | – | – | O=C(NC(=O)c1c(F)cccc1F)Nc1cc(Cl)c(OC(F)(F)C(F)C(F)(F)F)cc1Cl (centres unmarked) [Lufenuron] | – | – | Inactive | 7.45 | 35.7 | 11.3 | 10.9
20 | – | – | – | – | CCCCCC1C(=O)CCC1CC(=O)OC (centres unmarked) [Methyl dihydrojasmonate] | – | – | Inconclusive inhibitor | 8.73 | 27.2 | 28.4 | 2.53
21 | – | – | – | – | BrC(Br)C(Br)(Br)Br [Pentabromoethane] | – | – | Inconclusive inhibitor | 16.1 | 33.2 | 22.7 | 48.6
22 | – | – | – | – | Clc1nc(Cl)c(Cl)c(Cl)c1Cl [Pentachloropyridine] | – | – | Inactive | 8.61 | 41.8 | 62.4 | 61.1
23 | – | – | – | – | CSc1nc(NC(C)C)nc(NC(C)C)n1 [Prometryn] | – | – | Inactive | 29.1 | 17.3 | 58.2 | 71
24 | – | – | – | – | CC(C)(C)c1ccc(CSc2cnn(C(C)(C)C)c(=O)c2Cl)cc1 [Pyridaben] | – | – | Inactive | 4.7 | 25.6 | 7.2 | 8.29
25 | – | – | – | – | CC(COc1ccc(Oc2ccccc2)cc1)Oc1ccccn1 (centres unmarked) [Pyriproxyfen] | – | – | Inactive | 29.7 | 17.3 | 12 | 12.4
26 | 62.6 | 68.4 | 30.6 | 52.3 | CCCCCCCCOS(=O)(=O)O [Sodium octyl sulfate] | – | – | Inactive | – | – | – | –
27 | – | – | – | – | O=C(NC(=O)c1c(F)cccc1F)Nc1cc(Cl)c(F)c(Cl)c1F [Teflubenzuron] | – | – | Inactive | 57.7 | 32.5 | 46.5 | 69.2
28 | – | – | – | – | IC(I)=C(I)I [Tetraiodoethene] | – | – | Inactive | 19.5 | 13 | 3.57 | 9.09
29 | – | – | – | – | O=CC(Br)(Br)Br [Tribromoacetaldehyde] | – | – | Inconclusive inhibitor | 10.2 | 29.6 | 18.4 | 53.3
30 | – | – | – | – | O=P(Oc1ccccc1)(Oc1ccccc1)Oc1ccccc1 [Triphenyl phosphate] | – | – | Inactive | 6.42 | 10.8 | 6.87 | 6.53
31 | – | – | – | – | c1ccc(-c2ccccc2-c2ccccc2)cc1 [o-Terphenyl] | – | – | Inactive | 24.7 | 2.91 | 26.5 | 15.9
